Consider two molecules from patent US12673050B2, “Compositions and their use for the treatment of A1-antitrypsin deficiency” (Centessa Pharmaceuticals (UK) Limited, priority 2021, dated 2026).

One data set has as its target T1, human M A1AT (Homo sapiens, UniProt P01009).
T1 construct: expressed in transfected cells; host or cells: HEK-M cells (HEK-EBNA with M A1AT plasmid)
The data set can be described thus: A1AT cell secretion assay using HEK-M cells (ELISA). The class given is cell-based. The conditions noted are these: 10 μM, 48 h. On the procedure: (§1) HEK-M cells, a human embryonic kidney cell line stably transfected with M A1AT, were plated into 96 well plates (3.0×10^5 cells/ml with 200 μl of media/well) overnight at 37° C. in a humidified atmosphere containing 5% CO2. Following incubation cells were washed with 200 μl serum-free media three times and media was replaced with serum-free media containing either vehicle, 10 μM suberanilohydroxamic acid (SAHA), (S)-1-((2-(trifluoromethyl)phenyl)sulfonyl)piperidine-3-carboxylic acid (at 10 μM) or (R)-1-((2-(trifluoromethyl)phenyl)sulfonyl)piperidine-3-carboxylic acid (at 10 μM) in replicates of six for 48 h in a 37° C. incubator in a final volume of 200 μl. At the end of the incubation step the supernatants were removed from the wells, centrifuged at 1000×g at 4° C. for 10 min and were assayed for human A1AT levels by ELISA (Human Serpin A1/α1 antitrypsin duo set ELISA, R& D Systems, DY1268) per manufacturer's instructions.
(§2) Briefly, a 96 well plate was coated with human A1AT capture antibody overnight at room temperature (1:180 dilution from stock, 100 μl final volume/well). The capture antibody was then removed and wells washed three times with 300 μl wash buffer (0.05% Tween in PBS) and then 200 μl reagent diluent (25% Tween 20 in PBS) was incubated in each well for 1 h at room temperature. Diluted samples, standards (125, 250, 500, 1000, 2000, 4000 and 8000 pg/ml A1AT) or blanks were then added to each well in duplicate and the plates were covered with a plate sealer and left at room temperature for 2 h. […] After which, 50 μl stop solution (2M H2SO4) was added and optical density (OD) of each well was read at 450 nm with 570 nm blank subtracted from each well using a microplate reader. A 4 parameter logistic curve was constructed using GraphPad Prism 7 and A1AT concentrations were determined in each sample by interpolation from a standard curve and multiplying by the appropriate dilution factor.
(§3) The amount of human A1AT secreted from transfected HEK-EBNA cells into the media was measured by ELISA. […]
A general note: In an ELISA, binding on a coated surface is turned into a signal by an enzyme label.

In a further data set the target is T2, human Siiyama A1AT (Homo sapiens, UniProt P01009, S77F).
T2 construct: expressed in transfected cells; host or cells: HEK-Siiyama cells (HEK-EBNA with Siiyama A1AT plasmid)
T2 sequence (P01009 25-418 S77F): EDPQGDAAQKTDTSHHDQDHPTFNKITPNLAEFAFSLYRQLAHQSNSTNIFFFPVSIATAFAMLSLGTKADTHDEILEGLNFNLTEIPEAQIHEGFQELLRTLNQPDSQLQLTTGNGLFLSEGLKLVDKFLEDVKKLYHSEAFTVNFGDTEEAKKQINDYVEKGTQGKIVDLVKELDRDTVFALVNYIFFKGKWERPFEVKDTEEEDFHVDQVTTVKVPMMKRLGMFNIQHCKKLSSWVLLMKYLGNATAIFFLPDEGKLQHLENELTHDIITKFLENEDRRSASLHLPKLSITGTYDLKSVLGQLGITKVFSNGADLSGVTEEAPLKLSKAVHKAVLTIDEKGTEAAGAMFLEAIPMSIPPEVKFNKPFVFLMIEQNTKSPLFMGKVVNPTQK
Description: A1AT cell secretion assay using HEK-Siiyama cells (ELISA). The class given is cell-based. The conditions noted are these: 1 or 10 μM, 48 h. On the procedure: as §1, with “HEK-Siiyama” for “HEK-M”, “the Siiyama A1AT gene,” for “M A1AT,”, “containing” for “containing either”, “(at 1 or” for “(at”, “eight” for “six”, “A1/α1-antitrypsin” for “A1/α1 antitrypsin”
as §2, with “(0.05% Tween 20 in PBS)” for “(0.05% Tween in PBS)”
as §3

Data set [1] can be described thus: Pharmacokinetics in mice (blood, UPLC-MS/MS). The data set is classed as in vivo, mouse. The conditions noted are these: for Cmax / AUC / AUC(0-inf) / half-life / clearance / Vd: mouse, whole blood, male C57Bl/6 mice, blood; for Cmax: po, orally 10 mg/kg by gavage; for AUC / AUC(0-inf) / half-life / clearance / Vd: intravenously 2 mg/kg or orally 10 mg/kg; for half-life: read-out: Half-life in blood (t1/2) (converted); for clearance: read-out: Observed clearance; for Vd: read-out: Volume of distribution (Vz). As for the experimental part: (S)-1-((2-(trifluoromethyl)phenyl)sulfonyl)piperidine-3-carboxylic acid was administered to male C57BI/6 mice intravenously (2 mg/kg) or orally (10 mg/kg) by gavage. Whole blood diluted with water was prepared from these dosed animals over a time course up to 24 hours post dose to allow blood concentrations of drug to be measured by UPLC-MS/MS.
(R)-1-((2-(trifluoromethyl)phenyl)sulfonyl)piperidine-3-carboxylic acid was administered to male C57BI/6 mice intravenously (2 mg/kg) or orally (10 mg/kg) by gavage. Whole blood diluted with water was prepared from these dosed animals over a time course up to 24 hours post dose to allow blood concentrations of drug to be measured by UPLC-MS/MS.

A short description of data set [2]: Plasma protein binding by rapid equilibrium dialysis, mouse plasma. The data set is classed as in vitro ADME. The conditions noted are these: 37° C. As for the experimental part:
The extent to which (S)-1-((2-(trifluoromethyl)phenyl)sulfonyl)piperidine-3-carboxylic acid and (R)-1-((2-(trifluoromethyl)phenyl)sulfonyl)piperidine-3-carboxylic acid bound to plasma proteins such as albumin and alpha-1 acid glycoprotein within human or mouse blood was determined by rapid equilibrium dialysis. Compounds were incubated at 5 μM for 4 hours at 37° C. Plasma protein binding in mouse plasma was 78.1% and in human plasma was 91.5% for (S)-1-((2-(trifluoromethyl)phenyl)sulfonyl)piperidine-3-carboxylic acid. Plasma protein binding in mouse plasma was 83.8% and in human plasma was 90.5% for (R)-1-((2-(trifluoromethyl)phenyl)sulfonyl)piperidine-3-carboxylic acid.
A general note: Equilibrium dialysis compares concentrations on both sides of a semipermeable membrane.

Each structure is given as a SMILES string.

T1 sequence (P01009 25-418): as the sequence (P01009 25-418 S77F) above, with F53S counted along it

Usually Cmax stands for the peak of the concentration-time curve. Usually AUC stands for concentration integrated over time. Higher therefore signals high exposure. As a reminder, the AUC(0-inf) is the area under the concentration-time curve extrapolated to infinity. A lower AUC(0-inf) goes with less exposure. Broadly, the fraction unbound is the share of the substance not bound to proteins or other matrix. `O=C(O)[C@@H]1CCCN(S(=O)(=O)c2ccccc2C(F)(F)F)C1` [(R)-1-((2-(Trifluoromethyl)phenyl)sulfonyl)piperidine-3-carboxylic acid]: the “secretion of human M A1AT into cell supernatant” value on human M A1AT was “does not stimulate secretion of human M A1AT”. The “secretion of human Siiyama A1AT into cell supernatant” value on human Siiyama A1AT was “does not stimulate secretion of human Siiyama A1AT”. In data set [1] (mice, Examples 7 and 8), the “AUC lower than S enantiomer” value is 2.2 fold and the “t½ shorter than S enantiomer” value is 2.2 fold. Moreover, in data set [1], the highest level (Cmax) was 15.6 µg/mL, the area under the curve (AUC) was 24.2 µg·h/mL, the AUC(0-inf) came to 24.7 µg·h/mL and the half-life was 32.4 min. In addition, in data set [1], the clearance was found to be 0.492 L/h/kg and the Vd was determined as 0.38 L/kg. Also, the fraction unbound at 4 h, 5 μM in data set [2] was 0.162.

Regarding `O=C(O)[C@H]1CCCN(S(=O)(=O)c2ccccc2C(F)(F)F)C1` [(S)-1-((2-(Trifluoromethyl)phenyl)sulfonyl)piperidine-3-carboxylic acid], the “secretion of human M A1AT into cell supernatant” value at human M A1AT is recorded as “does not stimulate secretion of human M A1AT”. The “secretion of human Siiyama A1AT into cell supernatant” value at human Siiyama A1AT is “does not stimulate secretion of human Siiyama A1AT”. In data set [1], the Cmax was found to be 33.5 µg/mL, the AUC was determined as 54.2 µg·h/mL, the AUC(0-inf) was found to be 54.4 µg·h/mL and the half-life is 72 min. In data set [1], the clearance came out at 0.282 L/h/kg and the Vd is 0.49 L/kg. Also, the fraction unbound at 4 h, 5 μM in data set [2] is 0.219.
